One may read the pIC50 as −log10 of the IC50, conventionally taken in molar units.

Structures are written as SMILES. pIC50: −log10 of the molar value. Where a SMILES comes first, the peptide text is derived from it. Bridges are numbered along the chain shown (N, C = ends). [ ]: non-standard residue; d: D form. The star is where a group is joined. ξ: configuration not given here. Bip(3'-COOH) = N[C@@H](Cc1ccc(-c2cccc(C(=O)O)c2)cc1)C(=O)O; Phe(3-CF3) = N[C@@H](Cc1cccc(C(F)(F)F)c1)C(=O)O; Ala(morpholin-4-yl) = N[C@@H](CN1CCOCC1)C(=O)O; Phe(4-COOH) = N[C@@H](Cc1ccc(C(=O)O)cc1)C(=O)O; Bip = N[C@@H](Cc1ccc(-c2ccccc2)cc1)C(=O)O; Phe(3-CN) = N#Cc1cccc(C[C@H](N)C(=O)O)c1; Phe(3-Me) = Cc1cccc(C[C@H](N)C(=O)O)c1; Val(3-OH) = CC(C)(O)[C@H](N)C(=O)O; hArg = N=C(N)NCCCC[C@H](N)C(=O)O; 4Pal = N[C@@H](Cc1ccncc1)C(=O)O; Cha = N[C@@H](CC1CCCCC1)C(=O)O; Cit = NC(=O)NCCC[C@H](N)C(=O)O; Thr(3ξ) = CC(O)[C@H](N)C(=O)O; Carboxymethyl = O=C(O)C*; Nle = CCCC[C@H](N)C(=O)O; Orn = NCCC[C@H](N)C(=O)O; Pra = C#CC[C@H](N)C(=O)O; Dab = NCC[C@H](N)C(=O)O; Dap = NC[C@H](N)C(=O)O

Among the data in patent US20250163104A1, “MACROCYCLIC IMMUNOMODULATORS” (priority 2021, published 2025) are IC50 values, retold here.

For the assay, the target named is T1, human PD-1 / PD-L1-Ig binding on Jurkat cell line over-expressing human PD-1 (Jurkat-PD-1) (Homo sapiens, UniProt Q15116).
T1 construct: expressed in transfected cells; host or cells: Jurkat
As to the kind of experiment: Jurkat-PD-1 Cell Binding High-Content Screening Assay (CBA). As to conditions: Jurkat-PD-1 cells, PE-labeled PD-L1-Ig 20 nM final; read-out: Jurkat HPD1_PDL1 IC50. The assay is classed as cell-based. As to the method:
Example 3. Jurkat-PD-1 Cell Binding High-Content Screening Assay (CBA)
Jurkat-PD-1 Cell Binding High-Content Screening Assay (CBA). Phycoerythrin (PE) was covalently linked to the Ig epitope tag of human PD-L1-Ig and fluorescently-labeled PD-L1-Ig was used for binding studies with a Jurkat cell line over-expressing human PD-1 (Jurkat-PD-1). Briefly, 8×10^3 Jurkat-hPD-1 cells were seeded into 384 well plates in 20 μl of DMEM supplemented with 10% fetal calf serum. 100 nL of compound was added to cells followed by incubation at 37° C. for 2 h. Then, 5 μl of PE-labeled PD-L1-Ig (20 nM final), diluted in DMEM supplemented with 10% fetal calf serum. After 1 hour incubation, cells were fixed with 4% paraformaldehyde in dPBS containing 10 μg/ml Hoechst 33342 and then washed 3x in 100 μl dPBS. Data was collected and processed using a Cell Insight NXT High Content Imager and associated software.

T1 sequence (Q15116 25-288): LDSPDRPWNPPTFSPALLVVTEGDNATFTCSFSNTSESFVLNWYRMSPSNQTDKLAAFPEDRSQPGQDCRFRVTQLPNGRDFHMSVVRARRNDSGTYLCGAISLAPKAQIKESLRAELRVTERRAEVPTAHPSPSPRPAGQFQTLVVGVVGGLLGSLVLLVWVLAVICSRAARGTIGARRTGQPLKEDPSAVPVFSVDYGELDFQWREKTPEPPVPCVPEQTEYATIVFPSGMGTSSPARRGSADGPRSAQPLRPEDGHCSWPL

For the molecule `CC[C@H](C)[C@@H]1NC(=O)[C@H](Cc2ccc(-c3ccccc3)cc2)NC(=O)[C@H](CC(C)C)NC(=O)[C@H](Cc2c[nH]c3ccccc23)NC(=O)[C@H](CC(=O)O)NC(=O)[C@H](Cc2ccc(O)cc2)NC(=O)[C@H](Cc2ccccc2)NC(=O)CSC[C@@H](C(=O)NCC(N)=O)NC(=O)[C@H](CO)NC(=O)[C@H](C(C)C)NC(=O)[C@H](CC(C)C)NC(=O)[C@H](CCN)NC(=O)[C@@H](CC(C)C)NC(=O)[C@H](CCCN)NC1=O` [Compound 1230] ({CH2CO}-FYDWL[Bip]I[Orn][dL][Dab]LVSCG-NH2; thioether N-14), the pIC50 is 7.74.

As to `Cc1cccc(C[C@@H]2NC(=O)[C@H](CC(=O)O)NC(=O)[C@H](Cc3cccc(C#N)c3)NC(=O)[C@H](Cc3ccncc3)NC(=O)CSC[C@@H](C(=O)N[C@@H](CCN)C(N)=O)NC(=O)[C@H](CO)NC(=O)[C@H](C(C)(C)O)NC(=O)[C@H](CC3CCCCC3)NC(=O)[C@H](CCN)NC(=O)[C@@H](CC(C)C)NC(=O)[C@H](CCCN)NC(=O)[C@H](Cc3ccc(OCC(=O)O)cc3)NC(=O)[C@H](Cc3ccc(-c4ccccc4)cc3)NC(=O)[C@H](Cc3ccc(C(=O)O)cc3)NC2=O)c1` [Compound 2626] ({CH2CO}-[4Pal][Phe(3-CN)]D[Phe(3-Me)][Phe(4-COOH)][Bip]Y(Carboxymethyl)[Orn][dL][Dab][Cha][Val(3-OH)]SC[Dab]-NH2; thioether N-14), the pIC50 was 7.97.

`Cc1cccc(C[C@@H]2NC(=O)[C@H](CC(=O)O)NC(=O)[C@H](Cc3ccc(OCC(=O)O)cc3)NC(=O)[C@H](CCCCNC(=N)N)NC(=O)CSC[C@@H](C(=O)N[C@@H](CCCCN)C(=O)N[C@@H](CO)C(N)=O)NC(=O)[C@H](CO)NC(=O)[C@H](C(C)C)NC(=O)[C@H](CC3CCCCC3)NC(=O)[C@H](CCN)NC(=O)[C@@H](CC(C)C)NC(=O)[C@H](CCCN)NC(=O)[C@H](CCCNC(N)=O)NC(=O)[C@H](Cc3ccc(-c4ccccc4)cc3)NC(=O)[C@H](C(C)C)NC2=O)c1` [Compound 2594] ({CH2CO}-[hArg]Y(Carboxymethyl)D[Phe(3-Me)]V[Bip][Cit][Orn][dL][Dab][Cha]VSCKS-NH2; thioether N-14): the pIC50 was 7.88.

Regarding `CC(C)C[C@H]1NC(=O)[C@H](CCCN)NC(=O)[C@H](CCCN)NC(=O)[C@H](Cc2ccc(-c3ccccc3)cc2)NC(=O)[C@H](Cc2ccc(C(=O)O)cc2)NC(=O)[C@H](Cc2cccc(C(F)(F)F)c2)NC(=O)[C@H](CC(N)=O)NC(=O)[C@H](Cc2ccc(C(=O)O)cc2)NC(=O)[C@H](CN2CCOCC2)NC(=O)CSC[C@@H](C(=O)N[C@@H](CCN)C(N)=O)NC(=O)[C@H](CCCN)NC(=O)[C@H](C(C)C)NC(=O)[C@H](CC2CCCCC2)NC(=O)[C@H](CCN)NC1=O` [Example 2728] ({CH2CO}-[Ala(morpholin-4-yl)][Phe(4-COOH)]N[Phe(3-CF3)][Phe(4-COOH)][Bip][Orn][Orn][dL][Dab][Cha]V[Orn]C[Dab]-NH2; thioether N-14), the pIC50 was 6.02.

For the molecule `CC(C)C[C@H]1NC(=O)[C@H](CCCN)NC(=O)[C@H](CCC(=O)O)NC(=O)[C@H](Cc2ccc(-c3ccccc3)cc2)NC(=O)[C@H](C(C)C)NC(=O)[C@H](CCc2ccccc2)NC(=O)[C@H](CC(=O)O)NC(=O)[C@H](Cc2ccc(OCC(=O)O)cc2)NC(=O)[C@H](CN)NC(=O)CSC[C@@H](C(=O)N[C@@H](C)C(N)=O)NC(=O)[C@H]([C@@H](C)O)NC(=O)[C@H](C(C)C)NC(=O)[C@H](CC2CCCCC2)NC(=O)[C@H](CCN)NC1=O` [Compound 2155], the pIC50 is 7.31.

Consider `CC(C)C[C@H]1NC(=O)[C@H](CCCN)NC(=O)[C@H](CCC(=O)O)NC(=O)[C@H](Cc2ccc(-c3ccccc3)cc2)NC(=O)[C@H](C(C)C)NC(=O)[C@H](Cc2ccccc2F)NC(=O)[C@H](CC(=O)O)NC(=O)[C@H](Cc2ccc(C#N)cc2)NC(=O)[C@H](Cc2ccncc2)NC(=O)CSC[C@@H](C(=O)N[C@@H](C)C(N)=O)NC(=O)[C@H]([C@@H](C)O)NC(=O)[C@H](C(C)C)NC(=O)[C@H](CC2CCCCC2)NC(=O)[C@H](CCN)NC1=O` [Compound 2216], for which the negative logarithm of the IC50 (pIC50) was 7.71.

As for `CCCC[C@@H]1NC(=O)[C@H](Cc2c[nH]c3ccccc23)NC(=O)[C@H](CC(=O)O)NC(=O)[C@H](Cc2ccc(OCC(=O)O)cc2)NC(=O)[C@H](CN)NC(=O)CSC[C@@H](C(=O)N[C@@H](C)C(N)=O)NC(=O)[C@H]([C@@H](C)O)NC(=O)[C@H](C(C)C)NC(=O)[C@H](CC2CCCCC2)NC(=O)[C@H](CCN)NC(=O)[C@@H](CC(C)C)NC(=O)[C@H](CCCN)NC(=O)[C@H](C(C)C)NC(=O)[C@H](Cc2ccc(-c3ccccc3)cc2)NC1=O` [Compound 1734] ({CH2CO}-[Dap]Y(Carboxymethyl)DW[Nle][Bip]V[Orn][dL][Dab][Cha]VTCA-NH2; thioether N-14), the pIC50 is 7.97.

As for `C#CC[C@H](NC(=O)[C@H](CCN)NC(=O)[C@@H]1CSCC(=O)N[C@@H](CCCN)C(=O)N[C@@H](Cc2ccc(C(=O)O)cc2)C(=O)N[C@@H](CC(=O)O)C(=O)N[C@@H](Cc2cccc(C)c2)C(=O)N[C@@H](Cc2ccc(C(=O)O)cc2)C(=O)N[C@@H](Cc2ccc(-c3ccccc3)cc2)C(=O)N[C@@H](Cc2ccc(C(=O)O)cc2)C(=O)N[C@@H](CCCN)C(=O)N[C@H](CC(C)C)C(=O)N[C@@H](CCN)C(=O)N[C@@H](CC2CCCCC2)C(=O)N[C@@H](C(C)(C)O)C(=O)N[C@@H](Cc2cnc[nH]2)C(=O)N1)C(N)=O` [Compound 1857] ({CH2CO}-[Orn][Phe(4-COOH)]D[Phe(3-Me)][Phe(4-COOH)][Bip][Phe(4-COOH)][Orn][dL][Dab][Cha][Val(3-OH)]HC[Dab][Pra]-NH2; thioether N-14), the negative logarithm of the IC50 (pIC50) was 8.13.

For `CC(C)C[C@H]1NC(=O)[C@H](CCCN)NC(=O)[C@H](CCC(=O)O)NC(=O)[C@H](Cc2ccc(-c3ccccc3)cc2)NC(=O)[C@H](C(C)C)NC(=O)[C@H](Cc2c[nH]c3ccccc23)NC(=O)[C@H](CC(=O)O)NC(=O)[C@H](Cc2ccc(-c3cccc(C(=O)O)c3)cc2)NC(=O)[C@H](Cc2ccccc2)NC(=O)CSC[C@@H](C(=O)N[C@@H](C)C(N)=O)NC(=O)[C@H]([C@@H](C)O)NC(=O)[C@H](C(C)C)NC(=O)[C@H](CC2CCCCC2)NC(=O)[C@H](CCN)NC1=O` [Compound 2161] ({CH2CO}-F[Bip(3'-COOH)]DWV[Bip]E[Orn][dL][Dab][Cha]VTCA-NH2; thioether N-14), the pIC50 was 7.57.

On to `CC(C)C[C@@H]1NC(=O)[C@H](Cc2c[nH]c3ccccc23)NC(=O)[C@H](CC(=O)O)NC(=O)[C@H](Cc2ccc(C(=O)O)cc2)NC(=O)[C@H](Cc2ccc(OCC(=O)O)cc2)NC(=O)CSC[C@@H](C(=O)NCC(N)=O)NC(=O)[C@H](CO)NC(=O)[C@H](C(C)C)NC(=O)[C@H](CC(C)C)NC(=O)[C@H](CCN)NC(=O)[C@@H](CC(C)C)NC(=O)[C@H](CCCN)NC(=O)[C@H](C(C)C)NC(=O)[C@H](Cc2ccc(-c3ccccc3)cc2)NC1=O` [Compound 1254] ({CH2CO}-Y(Carboxymethyl)[Phe(4-COOH)]DWL[Bip]V[Orn][dL][Dab]LVSCG-NH2; thioether N-14), for which the negative logarithm of the IC50 (pIC50) was 8.13.

As to `Cc1cccc(C[C@@H]2NC(=O)[C@H](CC(=O)O)NC(=O)[C@H](Cc3ccc(OCC(=O)O)cc3)NC(=O)[C@H](CCCNC(=N)N)NC(=O)CSC[C@@H](C(=O)N[C@@H](CO)C(N)=O)NC(=O)[C@H](CO)NC(=O)[C@H](C(C)O)NC(=O)[C@H](CC3CCCCC3)NC(=O)[C@H](CCN)NC(=O)[C@@H](CC(C)C)NC(=O)[C@H](CCCN)NC(=O)[C@H](CCCNC(N)=O)NC(=O)[C@H](Cc3ccc(-c4ccccc4)cc3)NC(=O)[C@H](C(C)C)NC2=O)c1` (stereo partly drawn) [Compound 2598] ({CH2CO}-RY(Carboxymethyl)D[Phe(3-Me)]V[Bip][Cit][Orn][dL][Dab][Cha][Thr(3ξ)]SCS-NH2; thioether N-14), the pIC50 is 7.85.

Take `CC(C)C[C@H]1NC(=O)[C@H](CCCN)NC(=O)[C@H](CCCN)NC(=O)[C@H](Cc2ccc(-c3ccccc3)cc2)NC(=O)[C@H](Cc2ccc(C(=O)O)cc2)NC(=O)[C@H](Cc2cccc(C(F)(F)F)c2)NC(=O)[C@H](CC(N)=O)NC(=O)[C@H](Cc2ccc(OCC(=O)O)cc2)NC(=O)[C@H](CN2CCOCC2)NC(=O)CSC[C@@H](C(=O)N[C@@H](CCN)C(N)=O)NC(=O)[C@H](CCCN)NC(=O)[C@H](C(C)C)NC(=O)[C@H](CC2CCCCC2)NC(=O)[C@H](CCN)NC1=O` [Example 2726] ({CH2CO}-[Ala(morpholin-4-yl)]Y(Carboxymethyl)N[Phe(3-CF3)][Phe(4-COOH)][Bip][Orn][Orn][dL][Dab][Cha]V[Orn]C[Dab]-NH2; thioether N-14): the pIC50 is 7.18.

Consider `CCCC[C@@H]1NC(=O)[C@H](CCN)NC(=O)[C@@H](CC(C)C)NC(=O)[C@H](CCCN)NC(=O)[C@H](C(C)C)NC(=O)[C@H](Cc2ccc(-c3ccccc3)cc2)NC(=O)[C@H](C(C)C)NC(=O)[C@H](Cc2cccc(C)c2)NC(=O)[C@H](CC(=O)O)NC(=O)[C@H](Cc2ccc(OCC(=O)O)cc2)NC(=O)[C@H](Cc2ccncc2)NC(=O)CSC[C@@H](C(=O)N[C@@H](C)C(N)=O)NC(=O)[C@H]([C@@H](C)O)NC(=O)[C@H](C(C)C)NC1=O` [Compound 1199] ({CH2CO}-[4Pal]Y(Carboxymethyl)D[Phe(3-Me)]V[Bip]V[Orn][dL][Dab][Nle]VTCA-NH2; thioether N-14), for which the pIC50 was 8.39.
